Entries after “also recorded” stand apart in the source; their conditions may differ.
Assays:
[1] = system: patients with stable cardiovascular disease; settings: in vivo; cited from earlier work
[2] = system: patients with stable cardiovascular disease receiving single or dual antiplatelet therapy; settings: in vivo; cited from earlier work
[3] = system: patients with stable atherosclerotic vascular disease (coronary artery disease, peripheral arterial disease, or both); assay: COMPASS trial, net-clinical-benefit outcome; assay type: in vivo, human
Source text: “Safe” for the methods disclosed herein may also be measured by the net clinical benefit of the inventive method or product compared to administration of aspirin alone. The net clinical benefit outcome consists of cardiovascular death, myocardial infarction, stroke, and fatal or critical organ bleeding.
Because the products and methods of the present invention involve medications that cause the desired reduction in the risk of myocardial infarction, stroke, or cardiovascular death yet also cause undesired bleeding, the “net clinical benefit” of the therapy is important to consider. The “net clinical benefit” composite is a positive benefit risk ratio that was derived using severe bleeding events (intracranial bleeding, fatal bleeding, and critical organ bleeding) as a component of the composite. In clinical studies, the risk of the composite net clinical benefit outcome of cardiovascular death, stroke, myocardial infarction, fatal bleeding or symptomatic bleeding into a critical organ was lower with twice-daily 2.5 mg rivaroxaban combined with once daily 100 mg aspirin (4.7%) than with aspirin alone (100 mg once daily) (5.9%), hazard ratio 0.80.
(§1) Study aspirin was enteric-coated.
(§2) Three secondary efficacy outcomes were specified: the composite of ischemic stroke, myocardial infarction, acute limb ischemia, or death from coronary heart disease; the composite of ischemic stroke, myocardial infarction, acute limb ischemia, or cardiovascular death; and death from any cause. Tertiary efficacy outcomes included individual components of the primary and secondary outcomes, as well as hospitalization for cardiovascular causes, revascularization, limb amputation, stent thrombosis, angina, heart failure, venous thromboembolism, resuscitated cardiac arrest, and a new diagnosis of cancer. The net-clinical-benefit outcome was the composite of cardiovascular death, stroke, myocardial infarction, fatal bleeding, or symptomatic bleeding into a critical organ.
(§3) All reported P values are two-sided.

[4] = system: patients with stable atherosclerotic vascular disease (coronary artery disease, peripheral arterial disease, or both); assay: COMPASS trial, efficacy outcomes; assay type: in vivo, human; settings: for participants reported to have atrial fibrillation who had a stroke: 26 of the 392 participants with atrial fibrillation; for primary outcome / major adverse cardiovascular events compared with aspirin alone (in words): compared with aspirin alone 100 mg once daily; for primary outcome event of cardiovascular death, stroke, or myocardial infarction, number of patients / primary outcome event of cardiovascular death, stroke, or myocardial infarction, percentage of patients: rivaroxaban alone 5 mg twice daily, mean follow-up 23 months
Description: Patients were eligible if they provided written informed consent and met the criteria for coronary artery disease, peripheral arterial disease, or both. Patients with coronary artery disease who were younger than 65 years of age were also required to have documentation of atherosclerosis involving at least two vascular beds or to have at least two additional risk factors (current smoking, diabetes mellitus, an estimated glomerular filtration rate (“GFR”)<60 ml per minute, heart failure, or nonlacunar ischemic stroke≥1 month earlier). Exclusion criteria were a high bleeding risk; a recent stroke or previous hemorrhagic or lacunar stroke; severe heart failure; advanced stable kidney disease (estimated GFR<15 ml per minute); the use of dual antiplatelet therapy, anticoagulation, or other antithrombotic therapy; and noncardiovascular conditions deemed by the investigator to be associated with a poor prognosis.
Eligible participants (except those who underwent randomization 4 to 14 days after coronary-artery bypass graft (“CABG”) surgery) entered a run-in phase during which they received a rivaroxaban-matched placebo twice daily and aspirin at a dose of 100 mg once daily. The purpose of the run-in phase was to identify participants who were unwilling or unable to adhere to the trial regimen, who had adverse events, or who were otherwise not suitable for randomization. Patients who underwent randomization 4 to 14 days after CABG surgery were not required to participate in the run-in phase because thrombotic graft occlusion is most common during the first few weeks after surgery and we sought to enroll such patients promptly.
as §1, §2
All the outcome events in all randomly assigned patients that occurred between randomization and the date of stopping the trial were included in the analysis, according to the intention-to-treat principle. An early stop of both antithrombotic treatment groups for efficacy had not been anticipated, and therefore a strategy for formal testing of secondary outcomes at the interim analysis was not prespecified.
as §3

[5] = system: patients with a recent acute coronary syndrome; settings: background of single or dual antiplatelet therapy, cited from earlier work
[6] = system: patients with stable atherosclerotic vascular disease (coronary artery disease, peripheral arterial disease, or both); settings: human, in vivo, 23 months
Source text: Adverse events that impact whether the inventive combinations and combination therapy are safe are adverse bleeding events that include, for example, major bleeding, minor bleeding, intracranial bleeding, and symptomatic bleeding into a critical organ. “Major bleeding” as used herein is a modification of the International Society on Thrombosis and Haemostasis (ISTH) criteria for major bleeding and includes fatal bleeding, symptomatic bleeding into a critical organ, bleeding into a surgical site requiring reoperation, and bleeding that led to hospitalization (including presentation to an acute care facility without an overnight stay). Unlike the ISTH criteria, all bleeding that led to presentation to an acute care facility or hospitalization is considered as major.
The COMPASS trial, conducted at 602 centers in 33 countries, is a double-blind, double-dummy, randomized trial using a 3-by-2 partial factorial design and involving patients with a history of stable atherosclerotic vascular disease. […]

[7] = system: patients with stable peripheral arterial disease; settings: in vivo; cited from earlier work
[8] = rivaroxaban 2.5 mg twice daily + aspirin 100 mg once daily, aspirin alone 100 mg once daily

COC(=O)[C@H](c1ccccc1Cl)N1CCc2sccc2C1 [clopidogrel]
risk of cardiovascular death or death from any cause vs aspirin [1]: no significant difference
risk of major adverse cardiovascular events vs aspirin [1]: lower risk

CCOC(=O)N[C@@H]1CC[C@@H]2[C@@H](C1)C[C@H]1C(=O)O[C@H](C)[C@H]1[C@H]2/C=C/c1ccc(-c2cccc(F)c2)cn1 [vorapaxar]
mortality vs placebo [2]: no significant between-group difference
rate of major adverse cardiovascular events vs placebo [2]: lower rate
rate of moderate or severe bleeding vs placebo [2]: higher rate

O=C(NC[C@H]1CN(c2ccc(N3CCOCC3=O)cc2)C(=O)O1)c1ccc(Cl)s1 [rivaroxaban alone, 5-chloro-N-({(5S)-2-oxo-3-[4-(3-oxo-4-morpholinyl)phenyl]-1,3-oxazolidin-5-yl}methyl)-2-thiophenecarboxamide]
net-clinical-benefit outcome compared with aspirin alone (in words) ([3]; rivaroxaban alone 5 mg twice daily vs aspirin alone): not significantly lower; also recorded: did not show a significant difference
participants reported to have atrial fibrillation who had a stroke [4]: 8 participants
primary outcome / major adverse cardiovascular events compared with aspirin alone (in words) [4]: did not show a significant difference
primary outcome / major adverse cardiovascular events compared with aspirin alone (in words) ([4]; listed as Rivaroxaban): not associated with a significant reduction
primary outcome / major adverse cardiovascular events compared with aspirin alone (in words) ([4]; listed as Rivaroxaban alone): did not result in a significantly lower risk
hazard ratio for the primary outcome ([4]; compared with aspirin alone, stratified Cox model): 0.90
primary outcome event of cardiovascular death, stroke, or myocardial infarction, number of patients [4, 8]: 448 patients
primary outcome event of cardiovascular death, stroke, or myocardial infarction, percentage of patients [4, 8]: 4.9%
rate of major adverse cardiovascular events vs placebo ([5]; 2.5 mg twice daily or 5 mg twice daily): lower rate
mortality vs placebo ([5]; 2.5 mg twice daily): lower mortality
hazard ratio, major bleeding events (modified ISTH criteria) [6]: 1.51

CCCSc1nc(N[C@@H]2C[C@H]2c2ccc(F)c(F)c2)c2nnn([C@@H]3C[C@H](OCCO)[C@@H](O)[C@H]3O)c2n1 [ticagrelor]
rate of major adverse cardiovascular events vs clopidogrel [7]: did not result in a significantly lower rate

CC(=O)Oc1ccccc1C(=O)O [aspirin alone, acetylsalicylic acid]
composite net-clinical-benefit outcome of cardiovascular death, stroke, myocardial infarction, fatal bleeding, or symptomatic bleeding into a critical organ, number of patients [3, 8]: 534 patients
composite net-clinical-benefit outcome of cardiovascular death, stroke, myocardial infarction, fatal bleeding, or symptomatic bleeding into a critical organ, percentage of patients [3, 8]: 5.9%
participants reported to have atrial fibrillation who had a stroke [4]: 11 participants
deaths (death from any cause), number [4, 8]: 378 deaths
deaths (death from any cause), percentage [4, 8]: 4.1%
secondary composite outcome of ischemic stroke, myocardial infarction, acute limb ischemia, or death from coronary heart disease, number of patients [4, 8]: 450 patients
secondary composite outcome of ischemic stroke, myocardial infarction, acute limb ischemia, or death from coronary heart disease, percentage of patients [4, 8]: 4.9%
secondary outcome of ischemic stroke, myocardial infarction, acute limb ischemia, or cardiovascular death, number of patients [4, 8]: 516 patients
secondary outcome of ischemic stroke, myocardial infarction, acute limb ischemia, or cardiovascular death, percentage of patients [4, 8]: 5.7%
primary outcome event of cardiovascular death, stroke, or myocardial infarction, number of patients [4, 8]: 496 patients
primary outcome event of cardiovascular death, stroke, or myocardial infarction, percentage of patients [4, 8]: 5.4%
